Source: patent publication US20170233414A1, “DERIVATIVES OF BODIPY” (OREGON HEALTH & SCIENCE UNIVERSITY, priority 2016, published 2017)
Like-named read-outs stand apart in the source and are kept apart here.

Columns and labels:
[1] = cited from earlier work
[2] = Fluorescence properties and quantum yield measurements of the BAA library; format: physicochemical; parameters: FWHM (full-width-at half max): unit not given here; details: anhydrous DMSO; for λmax ABS / λmax EM: polystyrene 96 well plate; for FWHM (full-width-at half max): emission; for φfl (quantum yield): relative to reference fluorophore at three concentrations
Protocol: General Instruments. Synthesized sample purification was performed with an Agilent 1260 Infinity HPLC utilizing a C18 column (150mm×21.2 mm). MS (HRMS, ESI) spectra data was collected with an Agilent 6244 TOF LC/MS with diode array detector VL+ and C18 column (4.6 mm×50 mm). Absorbance and fluorescence data were measured on a SpectraMax M5 Microplate reader. NMR spectra, ^1H and ^13C, were recorded on a Bruker ARK400 spectrometer. BAA microscopy screening in cells for organelle specificity and signal-to-background ratio was completed with an Axio Zeiss Light Microscope and 63× oil immersion objective.
Fluorescence Properties and Quantum Yield Measurements. Spectroscopic characterizations were performed in anhydrous DMSO in polystyrene 96 well plate. Analysis included the maximum absorbance wavelength, maximum fluorescence emission wavelength, full-width-at half max, and quantum yield. Quantum yields (φfl) were determined by comparing the area under the emission spectrum of the BAA compound to a reference fluorophore solution at three concentrations using equation 1, where Grad represents the gradient from the plots of integrated fluorescence intensity vs absorbance at three concentrations and q is the refractive index of the solvent. Fluorescein in 0.1 M NaOH (φfl=0.91)^3 was the reference for samples with a max absorbance up to 510 nm, where an excitation of 470 nm was used with the emission integrated between 490 to 800 nm. Rhodamine B in ethanol (φfl=0.70) was the reference for samples with a max absorbance between 511-595 nm, where an excitation of 525 nm was used with the emission integrated between 545 to 800 nm. Cresyl violet in methanol (φfl=0.54)^4 was the reference for samples with a max absorbance above 595 nm, where an excitation of 570 nm was used with the emission integrated between 590 to 800 nm.

Row | Molecule | Stokes Shift [2] | λmax ABS [2] | λmax EM [2] | FWHM (full-width-at half max) [2] | φfl (quantum yield) [2] | φfl (quantum yield) ([1]; in ethanol, reference for max absorbance between 511-595 nm) | φfl (quantum yield) ([1]; in methanol, reference for max absorbance above 595 nm)
1 | CCN(CC)c1ccc2c(-c3ccccc3C(=O)O)c3ccc(=[N+](CC)CC)cc-3oc2c1.[Cl-] [Rhodamine B] | – | – | – | – | – | 0.70 | –
2 | Cresyl violet | – | – | – | – | – | – | 0.54
3 | COc1cc(/C=C(/CC(=O)O)c2ccc3n2[B-](F)(F)[N+]2=C(/C=C/c4ccc(OCc5ccc(F)cc5)c(OC)c4)C=C(C)C2=C3)ccc1OCc1ccc(F)cc1 [BAA-22b] | 19 nm | 582 nm | 601 nm | 46 | 0.27 | – | –
4 | CC1=CC(/C=C/c2ccc(-c3ccc(C(F)(F)F)cn3)cc2)=[N+]2C1=Cc1ccc(CCC(=O)O)n1[B-]2(F)F [BAA-23a] | 11 nm | 592 nm | 603 nm | 30 | 0.23 | – | –
5 | CCN(CC)c1ccc(/C=C(/CC(=O)O)c2ccc3n2[B-](F)(F)[N+]2=C(/C=C/c4ccc(N(CC)CC)cc4)C=C(C)C2=C3)cc1 [BAA-10b] | 82 nm | 632 nm | 714 nm | 102 | 0.01 | – | –
6 | COc1cc(OCc2ccccc2)ccc1/C=C/C1=[N+]2C(=Cc3ccc(CCC(=O)O)n3[B-]2(F)F)C(C)=C1 [BAA-21a] | 26 nm | 585 nm | 611 nm | 46 | 0.51 | – | –
7 | C=CCc1cc(/C=C/C2=[N+]3C(=Cc4ccc(CCC(=O)O)n4[B-]3(F)F)C(C)=C2)ccc1OC [BAA-15a] | 16 nm | 581 nm | 597 nm | 39 | 0.42 | – | –
8 | COc1ccc(/C=C/C2=[N+]3C(=Cc4ccc(CCC(=O)O)n4[B-]3(F)F)C(C)=C2)cc1F [BAA-13a] | 10 nm | 576 nm | 586 nm | 44 | 0.19 | – | –
9 | COc1cc(C=CC2=[N+]3C(=Cc4ccc(C(=Cc5ccc(OCc6cccc(C(F)(F)F)c6)c(OC)c5)CC(=O)O)n4[B-]3(F)F)C(C)=C2)ccc1OCc1cccc(C(F)(F)F)c1 [BAA-40b] | 18 nm | 583 nm | 601 nm | 45 | 0.26 | – | –
10 | CC1=CC(/C=C/c2ccc(Oc3ccc(Cl)cc3)cc2)=[N+]2C1=Cc1ccc(/C(=C\c3ccc(Oc4ccc(Cl)cc4)cc3)CC(=O)O)n1[B-]2(F)F [BAA-27b] | 13 nm | 575 nm | 588 nm | 35 | 0.33 | – | –
11 | COc1cc(/C=C/C2=[N+]3C(=Cc4ccc(CCC(=O)O)n4[B-]3(F)F)C(C)=C2)cc(I)c1OC [BAA-3a] | 10 nm | 569 nm | 579 nm | 31 | 0.61 | – | –
12 | COc1cc(C=CC2=[N+]3C(=Cc4ccc(C(=Cc5ccc(OCc6cccc(C(F)(F)F)c6)c(OC)c5)CC(=O)O)n4[B-]3(F)F)C(C)=C2)ccc1OCc1cccc(C(F)(F)F)c1 [BAA-44b] | 18 nm | 582 nm | 600 nm | 43 | 0.28 | – | –
13 | CC1=CC(C=Cc2ccc(Br)cc2S(C)(=O)=O)=[N+]2C1=Cc1ccc(CCC(=O)O)n1[B-]2(F)F [BAA-33a] | 12 nm | 575 nm | 587 nm | 35 | 0.15 | – | –
14 | COc1ccc(B(O)O)c(/C=C/C2=[N+]3C(=Cc4ccc(CCC(=O)O)n4[B-]3(F)F)C(C)=C2)c1 [BAA-9a] | 10 nm | 569 nm | 579 nm | 32 | 0.35 | – | –

Second part, led by results:

Row | Stokes Shift [2] | λmax ABS [2] | λmax EM [2] | FWHM (full-width-at half max) [2] | φfl (quantum yield) [2] | Molecule | φfl (quantum yield) ([1]; in ethanol, reference for max absorbance between 511-595 nm) | φfl (quantum yield) ([1]; in methanol, reference for max absorbance above 595 nm)
15 | 13 nm | 594 nm | 607 nm | 42 | 0.06 | CCOc1ccc2[nH]c(=O)cc(C=CC3=[N+]4C(=Cc5ccc(CCC(=O)O)n5[B-]4(F)F)C(C)=C3)c2c1 [BAA-51a] | – | –
16 | 17 nm | 576 nm | 593 nm | 37 | 0.80 | CC1=CC(C=Cc2c[nH]nc2-c2ccc(Cl)cc2)=[N+]2C1=Cc1ccc(CCC(=O)O)n1[B-]2(F)F [BAA-64a] | – | –
17 | 15 nm | 592 nm | 607 nm | 39 | 0.43 | CC1=CC(C=Cc2cc3ccc(C)cc3nc2Cl)=[N+]2C1=Cc1ccc(CCC(=O)O)n1[B-]2(F)F [BAA-63a] | – | –
18 | 16 nm | 575 nm | 591 nm | 38 | 0.75 | CC1=CC(C=Cc2cnn(-c3ccccc3C)c2C)=[N+]2C1=Cc1ccc(C(=Cc3cnn(-c4ccccc4C)c3C)CC(=O)O)n1[B-]2(F)F [BAA-57b] | – | –
19 | 16 nm | 576 nm | 592 nm | 35 | 0.75 | CC1=CC(C=Cc2cnn(-c3ccccc3)c2C)=[N+]2C1=Cc1ccc(CCC(=O)O)n1[B-]2(F)F [BAA-55a] | – | –
20 | 15 nm | 579 nm | 594 nm | 33 | 0.68 | CC1=CC(C=Cc2cccc3cnccc23)=[N+]2C1=Cc1ccc(CCC(=O)O)n1[B-]2(F)F [BAA-62a] | – | –
21 | 10 nm | 585 nm | 595 nm | 32 | 0.91 | CC1=CC(C=Cc2ccc(-c3cccs3)nc2)=[N+]2C1=Cc1ccc(CCC(=O)O)n1[B-]2(F)F [BAA-56a] | – | –
22 | 9 nm | 572 nm | 581 nm | 34 | 0.12 | CC1=CC(C=Cc2cc(-n3ccnc3)ccc2C)=[N+]2C1=Cc1ccc(C(=Cc3cc(-n4ccnc4)ccc3C)CC(=O)O)n1[B-]2(F)F [BAA-50b] | – | –
23 | 8 nm | 580 nm | 588 nm | 33 | 0.17 | CC1=CC(C=Cc2ccc(-c3cccc(C(F)(F)F)c3)nc2)=[N+]2C1=Cc1ccc(CCC(=O)O)n1[B-]2(F)F [BAA-70a] | – | –
